Experimental data published in US4446319A, “Aminocyclitols and their production” (Takeda Chemical Industries, Ltd., priority 1981, dated 1984).

Experiments:
α-glucoside hydrolase = settings: reported in Journal of Antibiotics 33, 1575 to 1576 (1980); cited from earlier work
[1] = biological target: T1, glucoamylase (Rhizopus mold) (Rhizopus oryzae, UniProt P07683); test: glucoamylase inhibitory activity, p-nitrophenyl α-D-glucopyranoside as substrate; format: biochemical; settings: substrate 0.01 M p-nitrophenyl α-D-glucopyranoside, pH 6.8, 37° C., read-out: IC50 (concentration of 50% inhibition)
T1 construct: purchased Sigma Chemical Co; host or cells: Rhizopus mold
T1 sequence (P07683 26-604): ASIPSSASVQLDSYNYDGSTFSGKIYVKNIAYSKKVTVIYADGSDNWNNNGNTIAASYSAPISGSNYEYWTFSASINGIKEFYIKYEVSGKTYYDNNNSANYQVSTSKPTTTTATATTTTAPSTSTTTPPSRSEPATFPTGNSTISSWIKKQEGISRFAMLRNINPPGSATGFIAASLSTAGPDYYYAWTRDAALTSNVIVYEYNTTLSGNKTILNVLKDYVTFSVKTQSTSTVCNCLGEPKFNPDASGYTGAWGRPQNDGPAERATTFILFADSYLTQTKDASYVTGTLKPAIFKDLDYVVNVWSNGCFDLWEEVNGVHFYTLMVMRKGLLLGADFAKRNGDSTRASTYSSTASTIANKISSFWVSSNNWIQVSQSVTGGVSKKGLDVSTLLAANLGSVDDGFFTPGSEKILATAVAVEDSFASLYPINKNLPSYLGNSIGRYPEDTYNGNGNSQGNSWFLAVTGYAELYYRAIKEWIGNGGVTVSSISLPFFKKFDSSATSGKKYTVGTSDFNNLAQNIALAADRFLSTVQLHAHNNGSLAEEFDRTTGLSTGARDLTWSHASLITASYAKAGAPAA
Method: (§1) The inhibitory activities against α-glucosidase (yeast, type I, produced by Sigman Chemical Co.) and glucoamylase (Rhizopus mold, produced by Sigma Chemical Co.) when p-nitrophenyl α-D-glucopyranoside is used as a substrate, are determined by adding to 0.25 ml of 0.02 M phosphate buffer (pH 6.8) containing 0.005 mg/ml of α-glucosidase 0.5 ml of a solution of valiolamine in the same buffer and 0.25 ml of a solution of 0.01 M p-nitrophenyl α-D-glucopyranoside in the same buffer, allowing the reaction to proceed at 37° C. for 15 minutes, then adding 3 ml of 0.1 M aqueous sodium carbonate solution to terminate the reaction, and measuring the absorbance of the reaction solution at 400 nm. The 50% inhibition concentration is calculated from the inhibition rates (%) which are determined with inhibitory substance samples of three to five different concentrations.

toxicity (LD50) in rats = settings: rat, in vivo
[2] = biological target: T2, α-glucosidase (yeast, type I) (Saccharomyces cerevisiae, UniProt P53341); test: glucosidase inhibitory activity, p-nitrophenyl α-D-glucopyranoside as substrate; format: biochemical; settings: substrate 0.01 M p-nitrophenyl α-D-glucopyranoside, pH 6.8, 37° C., read-out: IC50 (concentration of 50% inhibition)
T2 construct: purchased Sigma Chemical Co; host or cells: yeast
Method: as §1

[3] = biological target: T2, α-glucosidase (yeast, type I); test: glucosidase inhibitory activity, maltose as substrate; format: biochemical; settings: substrate 0.05 M maltose, pH 6.8, 37° C., read-out: IC50 (concentration of 50% inhibition)
Method: (§2) The inhibitory activities of valiolamine against α-glucosidase (yeast, type I, produced by Sigma Chemical Co., U.S.A.) as well as maltase and saccharase prepared from porcine intestinal mucosa (prepared in accordance with the procedure as described by B. Borgstrom and A. Dahlqvist in Acta Chem. Scand.; 12, 1997-2006, (1958)), when maltose and sucrose are used as a substrate, are determined by adding to 0.25 ml of a solution of an enzyme prepared by diluting suitably with 0.02 M phosphate buffer (pH 6.8) 0.5 ml of a solution of valiolamine to be tested in the same buffer and 0.25 ml of 0.05 M maltose or 0.05 M sucrose as the substrate in the same buffer allowing the mixture to react at 37° C. for 10 minutes, then adding 3 ml of Glucose B-Test Reagent (a glucose oxidase reagent for measurement of glucose, produced by Wako Pure Chemical Co., Japan), further warming the mixture at 37° C. for 20 minutes and measuring the absorbance of the reaction solution at 505 nm. […]

[4] = biological target: maltase (porcine, intestinal mucosa); test: maltase inhibitory activity, maltose as substrate; format: biochemical; settings: substrate 0.05 M maltose, pH 6.8, 37° C., read-out: IC50 (concentration of 50% inhibition)
Method: as §2

T2 sequence (P53341 whole entry): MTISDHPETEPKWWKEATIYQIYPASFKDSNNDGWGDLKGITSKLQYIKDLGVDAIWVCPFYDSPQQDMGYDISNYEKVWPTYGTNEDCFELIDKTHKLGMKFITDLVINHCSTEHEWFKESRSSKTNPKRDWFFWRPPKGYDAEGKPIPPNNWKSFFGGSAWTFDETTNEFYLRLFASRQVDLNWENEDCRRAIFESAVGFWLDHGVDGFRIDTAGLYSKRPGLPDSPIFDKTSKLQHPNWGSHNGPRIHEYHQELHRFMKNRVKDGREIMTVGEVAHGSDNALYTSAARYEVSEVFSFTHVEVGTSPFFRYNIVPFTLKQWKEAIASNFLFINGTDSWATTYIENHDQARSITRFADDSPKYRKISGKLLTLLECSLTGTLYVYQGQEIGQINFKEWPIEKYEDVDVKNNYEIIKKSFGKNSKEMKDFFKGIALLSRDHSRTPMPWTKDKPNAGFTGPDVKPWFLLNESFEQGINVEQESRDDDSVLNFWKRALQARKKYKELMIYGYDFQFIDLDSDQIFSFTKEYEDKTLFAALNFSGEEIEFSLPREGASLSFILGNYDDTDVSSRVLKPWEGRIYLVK

Row | Structure (SMILES) | action on α-glucoside hydrolase (α-glucoside hydrolase) | IC50 [1] | LD50 (toxicity (LD50) in rats) | IC50 [2] | IC50 [3] | IC50 [4]
1 | N[C@H]1C=C(CO)[C@@H](O)[C@H](O)[C@H]1O [valienamine] | possesses an action of suppressing the function of α-glucoside hydrolase | – | – | – | – | –
2 | N[C@H]1C[C@](O)(CO)[C@@H](O)[C@H](O)[C@H]1O [valiolamine, 1L(1S)-(1(OH),2,4,5/1,3)-5-amino-1-hydroxymethyl-1,2,3,4-cyclohexanetetrol] | – | 600 µM | ≥ 500 mg/kg | 1100 µM | 190 µM | 2.2 µM
